{"source": "patent US10072006B2", "about": "(MUTABILIS, priority 2015, dated 2018)", "key": {"[1]": {"molecular_target": "T1, SHV-1 (Klebsiella pneumoniae, UniProt P0AD64)", "T1 construct": "made in house; host or cells: E. coli", "T1 sequence (P0AD64 22-286)": "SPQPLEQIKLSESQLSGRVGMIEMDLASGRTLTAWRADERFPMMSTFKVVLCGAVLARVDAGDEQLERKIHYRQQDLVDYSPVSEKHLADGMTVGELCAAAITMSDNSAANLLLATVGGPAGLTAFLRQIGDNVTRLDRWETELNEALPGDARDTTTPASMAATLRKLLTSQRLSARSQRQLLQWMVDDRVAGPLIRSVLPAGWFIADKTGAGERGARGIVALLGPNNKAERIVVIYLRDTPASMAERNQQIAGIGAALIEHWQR", "assay": "β-lactamase inhibitory activity, determination of IC50 (nitrocefin hydrolysis)", "assay_type": "biochemical"}, "[2]": {"molecular_target": "T2, CTX-M-15 (Escherichia coli, UniProt Q9EXV5)", "T2 construct": "made in house; host or cells: E. coli", "T2 sequence (Q9EXV5 entry or part of it)": "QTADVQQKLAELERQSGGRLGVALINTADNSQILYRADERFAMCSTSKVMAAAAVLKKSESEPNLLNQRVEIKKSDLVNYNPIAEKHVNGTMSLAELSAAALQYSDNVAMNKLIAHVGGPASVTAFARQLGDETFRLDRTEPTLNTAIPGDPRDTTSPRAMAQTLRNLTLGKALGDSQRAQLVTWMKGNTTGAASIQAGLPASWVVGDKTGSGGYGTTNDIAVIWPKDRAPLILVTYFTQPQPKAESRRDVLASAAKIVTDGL", "assay": "β-lactamase inhibitory activity, determination of IC50 (nitrocefin hydrolysis)", "assay_type": "biochemical"}, "[3]": {"molecular_target": "T3, KPC-2 (Klebsiella pneumoniae, UniProt Q9F663)", "T3 construct": "made in house; host or cells: E. coli", "T3 sequence (Q9F663 25-293 limits assumed)": "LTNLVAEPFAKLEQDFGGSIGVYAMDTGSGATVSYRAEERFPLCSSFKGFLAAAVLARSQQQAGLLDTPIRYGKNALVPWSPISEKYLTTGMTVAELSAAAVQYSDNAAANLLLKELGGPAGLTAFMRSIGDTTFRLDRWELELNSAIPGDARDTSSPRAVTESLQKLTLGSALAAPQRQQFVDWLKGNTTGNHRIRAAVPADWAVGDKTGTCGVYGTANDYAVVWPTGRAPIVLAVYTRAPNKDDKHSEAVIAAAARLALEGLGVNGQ", "assay": "β-lactamase inhibitory activity, determination of IC50 (nitrocefin hydrolysis)", "assay_type": "biochemical"}, "[4]": {"molecular_target": "T4, OXA-1 (Escherichia coli, UniProt P13661)", "T4 construct": "made in house; host or cells: E. coli", "T4 sequence (P13661 26-276)": "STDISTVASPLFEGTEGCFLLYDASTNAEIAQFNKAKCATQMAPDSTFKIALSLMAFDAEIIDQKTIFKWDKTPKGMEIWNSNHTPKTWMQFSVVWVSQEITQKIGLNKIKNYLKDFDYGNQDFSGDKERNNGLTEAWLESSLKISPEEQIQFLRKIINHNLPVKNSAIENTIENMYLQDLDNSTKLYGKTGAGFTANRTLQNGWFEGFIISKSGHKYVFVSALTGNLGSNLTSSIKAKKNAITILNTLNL", "assay": "β-lactamase inhibitory activity, determination of IC50 (nitrocefin hydrolysis)", "assay_type": "biochemical"}, "[5]": {"molecular_target": "T5, OXA-11 (Pseudomonas aeruginosa, UniProt Q06778)", "T5 construct": "made in house; host or cells: E. coli", "T5 sequence (Q06778 21-266)": "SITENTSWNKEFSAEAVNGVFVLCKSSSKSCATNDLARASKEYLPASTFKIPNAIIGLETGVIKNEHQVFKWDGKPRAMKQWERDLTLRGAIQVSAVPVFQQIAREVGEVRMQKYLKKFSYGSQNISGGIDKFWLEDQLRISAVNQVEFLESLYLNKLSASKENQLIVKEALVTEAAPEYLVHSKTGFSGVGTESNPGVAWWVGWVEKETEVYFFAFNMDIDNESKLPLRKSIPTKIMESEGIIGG", "assay": "β-lactamase inhibitory activity, determination of IC50 (nitrocefin hydrolysis)", "assay_type": "biochemical"}, "[6]": {"molecular_target": "T6, OXA-15 (Pseudomonas aeruginosa, UniProt Q51574)", "T6 construct": "made in house; host or cells: E. coli", "T6 sequence (Q51574 22-275)": "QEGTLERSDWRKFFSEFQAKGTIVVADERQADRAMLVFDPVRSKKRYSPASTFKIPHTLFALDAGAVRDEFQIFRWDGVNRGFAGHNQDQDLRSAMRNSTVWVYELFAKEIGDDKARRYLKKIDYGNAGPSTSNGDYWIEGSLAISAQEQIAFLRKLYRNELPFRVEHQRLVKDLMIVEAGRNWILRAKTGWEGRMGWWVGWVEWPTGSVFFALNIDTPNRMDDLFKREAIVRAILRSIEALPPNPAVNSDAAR", "assay": "β-lactamase inhibitory activity, determination of IC50 (nitrocefin hydrolysis)", "assay_type": "biochemical"}, "[7]": {"molecular_target": "T7, OXA-48 (Klebsiella pneumoniae, UniProt Q6XEC0)", "T7 construct": "made in house; host or cells: E. coli", "T7 sequence (Q6XEC0 23-265 limits assumed)": "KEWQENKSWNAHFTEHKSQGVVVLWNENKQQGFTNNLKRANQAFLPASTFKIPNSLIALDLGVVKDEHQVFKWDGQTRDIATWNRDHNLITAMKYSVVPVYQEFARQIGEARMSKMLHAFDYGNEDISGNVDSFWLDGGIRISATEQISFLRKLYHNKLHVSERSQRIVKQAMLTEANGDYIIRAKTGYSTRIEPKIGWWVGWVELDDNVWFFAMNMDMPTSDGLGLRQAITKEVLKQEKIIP", "assay": "β-lactamase inhibitory activity, determination of IC50 (nitrocefin hydrolysis)", "assay_type": "biochemical"}, "[8]": {"tested_on": "K. pneumoniae UFR68 (TEM-1, SHV-11, CTX-M-15, KPC-3)", "assay": "microbe, parasite or virus in culture", "assay_type": "cell-based"}, "[9]": {"tested_on": "E. cloacae UFR70 (TEM-1, CTX-M-15, CMY-2, OXA-1, Porin loss)", "assay": "MIC of compounds and synergy with ceftazidime (broth microdilution)", "assay_type": "cell-based", "method": "(§1) Briefly, compounds alone according to the invention were prepared in DMSO and spotted (2 μL each) on sterile polystyrene plates (Corning, 3788). […] Microplates were incubated for 16-20 h at 35° C. in ambient air. The MIC of the compounds was defined as the lowest concentration of said compounds that prevented bacterial growth as read by visual inspection."}, "[10]": {"tested_on": "P. aeruginosa UFR90 (Derepressed ampC, OprD-)", "assay": "MIC of compounds and synergy with ceftazidime (broth microdilution)", "assay_type": "cell-based", "method": "as §1"}, "[11]": {"tested_on": "P. aeruginosa UFR92 (Derepressed ampC, OprD-)", "assay": "MIC of compounds and synergy with ceftazidime (broth microdilution)", "assay_type": "cell-based", "method": "as §1"}, "[12]": {"tested_on": "P. aeruginosa UFR93 (Derepressed ampC, OprD-, MexAB+, MexXY+)", "assay": "MIC of compounds and synergy with ceftazidime (broth microdilution)", "assay_type": "cell-based", "method": "as §1"}, "[13]": {"tested_on": "E. cloacae UFR85 (TEM-1, CTX-M-15, derepressed ampC)", "assay": "microbe, parasite or virus in culture", "assay_type": "cell-based", "method": "[…] […] Microplates were incubated for 16-20 h at 35° C. in ambient air. The MIC of the compounds was defined as the lowest concentration of said compounds that prevented bacterial growth as read by visual inspection."}, "[14]": {"tested_on": "K. oxytoca UFR21 (TEM-1, CTX-M-15, OXA-48)", "assay": "microbe, parasite or virus in culture", "assay_type": "cell-based"}, "[15]": {"tested_on": "K. pneumoniae 200047 (TEM-1, SHV-32, CTX-M-15, OXA-1)", "assay": "microbe, parasite or virus in culture", "assay_type": "cell-based"}, "[16]": {"tested_on": "E. cloacae 260508 (TEM-1, CTX-M-15)", "assay": "microbe, parasite or virus in culture", "assay_type": "cell-based", "method": "as §1"}, "[17]": {"tested_on": "E. coli 190317 (TEM-1, SHV-12, CTX-M-15, OXA-1)", "assay": "microbe, parasite or virus in culture", "assay_type": "cell-based", "method": "as §1"}, "[18]": {"tested_on": "K. pneumoniae 160143 (TEM-1, SHV-1, CTX-M-15, KPC-2, OXA-1)", "assay": "microbe, parasite or virus in culture", "assay_type": "cell-based", "method": "as §1"}, "[19]": {"conditions": "Klebsiella pneumoniae, 18 h, read-out: MIC compounds of the invention alone"}, "[20]": {"conditions": "Enterobacter cloacae, 18 h, read-out: MIC compounds of the invention alone"}, "[21]": {"conditions": "Pseudomonas aeruginosa, 18 h, read-out: MIC compounds of the invention alone"}}, "data": [{"smiles": "NC[C@H]1C=C(c2cnco2)[C@@H]2CN1C(=O)N2OS(=O)(=O)[O-].O=C(O)C(F)(F)F.[Na+]", "note": "(relative stereo) [Example 1, Sodium and 2,2,2-trifluoroacetate [trans-2-(azaniumylmethyl)-4-oxazol-5-yl-7-oxo-1,6-diazabicyclo[3.2.1]oct-3-en-6-yl] sulfate]", "values": [{"measurement": "IC50", "setting": "[1]", "value": 1.3, "unit": "nM"}, {"measurement": "IC50", "setting": "[2]", "value": 5.4, "unit": "nM"}, {"measurement": "IC50", "setting": "[3]", "value": 7.8, "unit": "nM"}, {"measurement": "IC50", "setting": "[4]", "value": 80, "unit": "nM"}, {"measurement": "IC50", "setting": "[5]", "value": 4.1, "unit": "nM"}, {"measurement": "IC50", "setting": "[6]", "value": 0.65, "unit": "nM"}, {"measurement": "IC50", "setting": "[7]", "value": 0.51, "unit": "nM"}, {"measurement": "MIC", "setting": "[8]; [19]", "value": "> 32", "unit": "mg/L"}, {"measurement": "MIC, combination of CAZ and compounds of the invention", "setting": "[8]; MIC of ceftazidime with compound fixed at 4 μg/mL, strain UFR68 (K. pneumoniae)", "value": 1, "unit": "mg/L"}, {"measurement": "MIC", "setting": "[9]; [20]", "value": 16, "unit": "mg/L"}, {"measurement": "MIC, combination of CAZ and compounds of the invention", "setting": "[9]; MIC of ceftazidime with compound fixed at 4 μg/mL, strain UFR70 (E. cloacae)", "value": 1, "unit": "mg/L"}, {"measurement": "MIC, combination of CAZ and compounds of the invention", "setting": "[10]; MIC of ceftazidime with compound fixed at 4 μg/mL, strain UFR90 (P. aeruginosa)", "value": "<0.25", "unit": "mg/L"}, {"measurement": "MIC", "setting": "[10]; [21]", "value": 0.5, "unit": "mg/L"}, {"measurement": "MIC, combination of CAZ and compounds of the invention", "setting": "[11]; MIC of ceftazidime with compound fixed at 4 μg/mL, strain UFR92 (P. aeruginosa)", "value": "<0.25", "unit": "mg/L"}, {"measurement": "MIC", "setting": "[11]; [21]", "value": 2, "unit": "mg/L"}, {"measurement": "MIC, combination of CAZ and compounds of the invention", "setting": "[12]; MIC of ceftazidime with compound fixed at 4 μg/mL, strain UFR93 (P. aeruginosa)", "value": "<0.25", "unit": "mg/L"}, {"measurement": "MIC", "setting": "[12]; [21]", "value": 8, "unit": "mg/L"}, {"measurement": "MIC", "setting": "[13]; [20]", "value": "> 32", "unit": "mg/L"}, {"measurement": "MIC, combination of CAZ and compounds of the invention", "setting": "[13]; MIC of ceftazidime with compound fixed at 4 μg/mL, strain UFR85 (E. cloacae)", "value": 2, "unit": "mg/L"}, {"measurement": "MIC", "setting": "[14]; Klebsiella oxytoca, 18 h, read-out: MIC compounds of the invention alone", "value": "> 32", "unit": "mg/L"}, {"measurement": "MIC, combination of CAZ and compounds of the invention", "setting": "[14]; MIC of ceftazidime with compound fixed at 4 μg/mL, strain UFR21 (K. oxytoca)", "value": 0.5, "unit": "mg/L"}, {"measurement": "MIC", "setting": "[15]; [19]", "value": "> 32", "unit": "mg/L"}, {"measurement": "MIC, combination of CAZ and compounds of the invention", "setting": "[15]; MIC of ceftazidime with compound fixed at 4 μg/mL, strain 200047 (K. pneumoniae)", "value": 0.5, "unit": "mg/L"}, {"measurement": "MIC", "setting": "[16]; Enterobacter cloacae, read-out: MIC compounds of the invention alone", "value": 0.063, "unit": "mg/L"}, {"measurement": "MIC, combination of CAZ and compounds of the invention", "setting": "[16]; MIC of ceftazidime with compound fixed at 4 μg/mL, strain 260508 (E. cloacae)", "value": "≤0.125", "unit": "mg/L"}, {"measurement": "MIC", "setting": "[17]; Escherichia coli, 18 h, read-out: MIC compounds of the invention alone", "value": 0.031, "unit": "mg/L"}, {"measurement": "MIC, combination of CAZ and compounds of the invention", "setting": "[17]; MIC of ceftazidime with compound fixed at 4 μg/mL, strain 190317 (E. coli)", "value": "<0.25", "unit": "mg/L"}, {"measurement": "MIC", "setting": "[18]; [19]", "value": "> 32", "unit": "mg/L"}, {"measurement": "MIC, combination of CAZ and compounds of the invention", "setting": "[18]; MIC of ceftazidime with compound fixed at 4 μg/mL, strain 160143 (K. pneumoniae)", "value": 1, "unit": "mg/L"}]}]}
